From patent US8173638B2 (Boehringer Ingelheim International GmbH, priority 2006, dated 2012)

Each compound was assayed against T1, human CB2R (Homo sapiens, UniProt P34972) (assay: CB2R mediated modulation of cAMP synthesis). Conditions: not given.
T1 construct: host or cells: CHO cells
Type: cell-based
In short: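 CHO cells expressing human CB2R treated with compound 30 min at 37 °C in buffer with 1 mM IBMX, 0.25% BSA and 10 uM forskolin. cAMP measured after lysis by DiscoverX-XS kit.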

T1 sequence (P34972 whole entry): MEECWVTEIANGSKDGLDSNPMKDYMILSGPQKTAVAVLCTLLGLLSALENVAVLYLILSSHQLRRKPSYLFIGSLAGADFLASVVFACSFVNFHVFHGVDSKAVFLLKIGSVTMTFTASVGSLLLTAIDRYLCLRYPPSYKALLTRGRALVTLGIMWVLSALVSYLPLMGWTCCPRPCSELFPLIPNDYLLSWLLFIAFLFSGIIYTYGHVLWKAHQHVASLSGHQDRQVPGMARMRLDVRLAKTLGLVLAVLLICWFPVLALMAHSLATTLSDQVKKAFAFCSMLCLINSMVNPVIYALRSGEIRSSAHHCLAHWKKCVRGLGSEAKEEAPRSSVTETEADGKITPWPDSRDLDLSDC

Compound	EC50 [nM]
CC(C)(C)c1cc(NC(=O)N2CCCN(C(=O)NC3CCCCC3)CC2)no1 [Compound 212, [1,4]Diazepane-1,4-dicarboxylic acid 1-[(5-tert-butyl-isoxazol-3-yl)-amide] 4-cyclohexylamide]	70

Same assay, conditions: 0.5 h; CHO cells expressing human CB2R; cAMP inhibited by 1 uM CP55940 defined as 100%; read-out: Agonist Efficacy (%)

Emax [%]	Compound
100	O=C(CC1CCCC1)N1CCCN(C(=O)Nc2ccc3ccccc3c2)CC1 [Compound 48, 4-(2-Cyclopentyl-acetyl)-[1,4]diazepane-1-carboxylic acid (2-naphthyl)-amide]
102	CC(C)(C)c1cc(NC(=O)N2CCCN(C(=O)CN3CCSCC3)CC2)no1 [Compound 227, 4-(2-Thiomorpholin-4-yl-acetyl)-[1,4]diazepane-1-carboxylic acid (5-tert-butyl-isoxazol-3-yl)-amide]
99	O=C(Nc1ccc(SC(F)(F)F)cc1)N1CCCN(C(=O)C2CCCCC2)CC1 [Compound 80, 4-Cyclohexanecarbonyl-[1,4]diazepane-1-carboxylic acid (4-trifluoromethylsulfanyl-phenyl)-amide]
107	CC(C)(C)c1cc(NC(=O)N2CCCN(C(=O)N3CCSCC3)CC2)no1 [Compound 203, 4-(Thiomorpholine-4-carbonyl)-[1,4]diazepane-1-carboxylic acid (5-tert-butyl-isoxazol-3-yl)-amide]
101	Cc1ccc(C(=O)N2CCCN(C(=O)Nc3ccc(C(C)(C)C)cc3)CC2)cc1 [Compound 122, 4-(4-Methyl-benzoyl)-[1,4]diazepane-1-carboxylic acid (4-tert-butyl-phenyl)-amide]
101	O=C(Nc1nc2c(s1)CCCC2)N1CCCN(C(=O)c2ccc(Cl)cc2)CC1 [Compound 168, 4-(4-Chloro-benzoyl)-[1,4]diazepane-1-carboxylic acid (4,5,6,7-tetrahydro-benzothiazol-2-yl)-amide]

Same assay, conditions: CHO, 0.5 h, read-out: Agonist Efficacy (%)

Compound	Emax [%]
CC(C)(C)c1cc(NC(=O)N2CCCN(C(=O)NC3CCCCC3)CC2)no1 [Compound 212, [1,4]Diazepane-1,4-dicarboxylic acid 1-[(5-tert-butyl-isoxazol-3-yl)-amide] 4-cyclohexylamide]	102
CC(C)(C)c1cc(NC(=O)N2CCCN(C(=O)C3CCOCC3)CC2)no1 [Compound 142, 4-(Tetrahydro-pyran-4-carbonyl)-[1,4]diazepane-1-carboxylic acid (5-tert-butyl-isoxazol-3-yl)-amide]	110

Same assay, conditions: found through the use of the described assays (CB2 agonists); qualitative statement

agonistic activity	Compound
agonistic activity	O=C(Nc1ccc(Oc2ccccc2)nc1)N1CCCN(C(=O)C2CCOCC2)CC1 [4-(Tetrahydro-pyran-4-carbonyl)-[1,4]diazepane-1-carboxylic acid (6-phenoxy-pyridin-3-yl)-amide]
agonistic activity	CCCCc1ccc(NC(=O)N2CCCN(C(=O)C3CCOCC3)CC2)cc1 [4-(Tetrahydro-pyran-4-carbonyl)-[1,4]diazepane-1-carboxylic acid (4-butyl-phenyl)-amide]
agonistic activity	CCCCc1ccc(NC(=O)N2CCCN(C(=O)C3CCCC3)CC2)cc1 [4-Cyclopentanecarbonyl-[1,4]diazepane-1-carboxylic acid (4-butyl-phenyl)-amide]
agonistic activity	C[C@@H]1CN(CC(=O)N2CCCN(C(=O)Nc3cc(C(C)(C)C)on3)CC2)C[C@H](C)O1 [4-[2-((2R,6S)-2,6-Dimethyl-morpholin-4-yl)-acetyl]-[1,4]diazepane-1-carboxylic acid (5-tert-butyl-isoxazol-3-yl)-amide]
agonistic activity	COC1CCN(C(=O)N2CCCN(C(=O)Nc3cc(C(C)(C)C)no3)CC2)CC1 [4-(4-Methoxy-piperidine-1-carbonyl)-[1,4]diazepane-1-carboxylic acid (3-tert-butyl-isoxazol-5-yl)-amide]
agonistic activity	Cc1sc(NC(=O)N2CCCN(C(=O)C3CCOCC3)CC2)nc1C(C)(C)C [4-(Tetrahydro-pyran-4-carbonyl)-[1,4]diazepane-1-carboxylic acid (4-tert-butyl-5-methyl-thiazol-2-yl)-amide]

Further lines, the compound ahead of its results:

Compound	agonistic activity
CCCCc1ccc(NC(=O)N2CCCN(C(=O)CCC3CC3)CC2)cc1 [4-(3-Cyclopropyl-propionyl)-[1,4]diazepane-1-carboxylic acid (4-butyl-phenyl)-amide]	agonistic activity
CC1(C(=O)N2CCCN(C(=O)Nc3cc(C(C)(C)C)on3)CC2)CCCCC1 [4-(1-Methyl-cyclohexanecarbonyl)-[1,4]diazepane-1-carboxylic acid (5-tert-butyl-isoxazol-3-yl)-amide]	agonistic activity
O=C(CC1CCCC1)N1CCCN(C(=O)Nc2cccc(C(F)(F)F)c2)CC1 [4-(2-Cyclopentyl-acetyl)-[1,4]diazepane-1-carboxylic acid (3-trifluoromethyl-phenyl)-amide]	agonistic activity
CC(C)(C)c1cc(NC(=O)N2CCCN(C(=O)N3CCCCC3)CC2)no1 [4-(Piperidine-1-carbonyl)-[1,4]diazepane-1-carboxylic acid (5-tert-butyl-isoxazol-3-yl)-amide]	agonistic activity
O=C(CCC1CCCC1)N1CCCN(C(=O)Nc2ccc(C(F)(F)F)cc2)CC1 [4-(3-Cyclopentyl-propionyl)-[1,4]diazepane-1-carboxylic acid (4-trifluoromethyl-phenyl)-amide]	agonistic activity
CC(C)c1ccc(NC(=O)N2CCCN(C(=O)CC3CCCCC3)CC2)cc1 [4-(2-Cyclohexyl-acetyl)-[1,4]diazepane-1-carboxylic acid (4-isopropyl-phenyl)-amide]	agonistic activity
CC(C)(C)C(=O)N1CCCN(C(=O)Nc2ccc3ccccc3c2)CC1 [4-(2,2-Dimethyl-propionyl)-[1,4]diazepane-1-carboxylic acid naphthalen-2-ylamide]	agonistic activity
O=C(CC1CCCC1)N1CCCN(C(=O)Nc2ccc(Cl)c(Cl)c2)CC1 [4-(2-Cyclopentyl-acetyl)-[1,4]diazepane-1-carboxylic acid (3,4-dichloro-phenyl)-amide]	agonistic activity
CCC(C)c1ccc(NC(=O)N2CCCN(C(=O)N3CCS(=O)(=O)CC3)CC2)cc1 (centres unmarked) [4-(1,1-Dioxo-1λ^6-thiomorpholine-4-carbonyl)-[1,4]diazepane-1-carboxylic acid (4-sec-butyl-phenyl)-amide]	agonistic activity
O=C(CCC1CCCC1)N1CCCN(C(=O)Nc2cccc3ccccc23)CC1 [4-(3-Cyclopentyl-propionyl)-[1,4]diazepane-1-carboxylic acid naphthalen-1-ylamide]	agonistic activity
O=C(Nc1nc(-c2ccccc2)cs1)N1CCCN(C(=O)c2ccc(Cl)cc2)CC1 [4-(4-Chloro-benzoyl)-[1,4]diazepane-1-carboxylic acid (4-phenyl-thiazol-2-yl)-amide]	agonistic activity
CCCCCc1ccc(NC(=O)N2CCCN(C(=O)CC3CCCC3)CC2)cc1 [4-(2-Cyclopentyl-acetyl)-[1,4]diazepane-1-carboxylic acid (4-n-pentyl-phenyl)-amide]	agonistic activity
CC(C)(C)CC(=O)N1CCCN(C(=O)Nc2ccc3ccccc3c2)CC1 [4-(3,3-Dimethyl-butyryl)-[1,4]diazepane-1-carboxylic acid naphthalen-2-ylamide]	agonistic activity
CC(C)(C)c1cc(NC(=O)N2CCCN(C(=O)N3CC[S+]([O-])CC3)CC2)no1 [4-(1-Oxo-1λ^4-thiomorpholine-4-carbonyl)-[1,4]diazepane-1-carboxylic acid (5-tert-butyl-isoxazol-3-yl)-amide]	agonistic activity
CC(C)(C)c1cc(NC(=O)N2CCCN(C(=O)N3CCC(S(C)(=O)=O)CC3)CC2)no1 [4-(4-Methanesulfonyl-piperidine-1-carbonyl)-[1,4]diazepane-1-carboxylic acid (5-tert-butyl-isoxazol-3-yl)-amide]	agonistic activity
CCc1ccc(NC(=O)N2CCCN(C(=O)CC3CCOCC3)CC2)cc1 [4-(2-Tetrahydro-pyran-4-yl-acetyl)-[1,4]diazepane-1-carboxylic acid (4-ethyl-phenyl)-amide]	agonistic activity
CN(C)c1ccc(C(=O)N2CCCN(C(=O)Nc3ccc4ccccc4c3)CC2)cc1 [4-(4-Dimethylamino-benzoyl)-[1,4]diazepane-1-carboxylic acid naphthalen-2-ylamide]	agonistic activity
CC(C)(C)c1cc(NC(=O)N2CCCN(C(=O)C3CCNCC3)CC2)no1 [4-(Piperidine-4-carbonyl)-[1,4]diazepane-1-carboxylic acid (5-tert-butyl-isoxazol-3-yl)-amide]	agonistic activity
CC(C)c1ccc(NC(=O)N2CCCN(C(=O)CCC3CCCCC3)CC2)cc1 [4-(3-Cyclohexyl-propionyl)-[1,4]diazepane-1-carboxylic acid (4-isopropyl-phenyl)-amide]	agonistic activity
O=C(CC1CCOCC1)N1CCCN(C(=O)Nc2ccc(C(F)(F)F)cc2)CC1 [4-(2-Tetrahydro-pyran-4-yl-acetyl)-[1,4]diazepane-1-carboxylic acid (4-trifluoromethyl-phenyl)-amide]	agonistic activity
O=C(Nc1ccc(C(F)(F)F)cc1)N1CCCN(C(=O)C2CCC(F)(F)CC2)CC1 [4-(4,4-Difluoro-cyclohexanecarbonyl)-[1,4]diazepane-1-carboxylic acid (4-trifluoromethyl-phenyl)-amide]	agonistic activity
CCCCc1ccc(NC(=O)N2CCCN(C(=O)CCC3CCCCC3)CC2)cc1 [4-(3-Cyclohexyl-propionyl)-[1,4]diazepane-1-carboxylic acid (4-butyl-phenyl)-amide]	agonistic activity
CC(C)(C)c1cc(NC(=O)N2CCCN(C(=O)C3CCN(S(C)(=O)=O)CC3)CC2)no1 [4-(1-Methanesulfonyl-piperidine-4-carbonyl)-[1,4]diazepane-1-carboxylic acid (5-tert-butyl-isoxazol-3-yl)-amide]	agonistic activity

Same assay, conditions: read-out: hCB2 cAMP EC50

EC50 [nM]	Compound
53	O=C(CC1CCCC1)N1CCCN(C(=O)Nc2ccc3ccccc3c2)CC1 [Compound 48, 4-(2-Cyclopentyl-acetyl)-[1,4]diazepane-1-carboxylic acid (2-naphthyl)-amide]
9.6	CC(C)(C)c1cc(NC(=O)N2CCCN(C(=O)CN3CCSCC3)CC2)no1 [Compound 227, 4-(2-Thiomorpholin-4-yl-acetyl)-[1,4]diazepane-1-carboxylic acid (5-tert-butyl-isoxazol-3-yl)-amide]
12	O=C(Nc1ccc(SC(F)(F)F)cc1)N1CCCN(C(=O)C2CCCCC2)CC1 [Compound 80, 4-Cyclohexanecarbonyl-[1,4]diazepane-1-carboxylic acid (4-trifluoromethylsulfanyl-phenyl)-amide]
62	CC(C)(C)c1cc(NC(=O)N2CCCN(C(=O)N3CCSCC3)CC2)no1 [Compound 203, 4-(Thiomorpholine-4-carbonyl)-[1,4]diazepane-1-carboxylic acid (5-tert-butyl-isoxazol-3-yl)-amide]
100	Cc1ccc(C(=O)N2CCCN(C(=O)Nc3ccc(C(C)(C)C)cc3)CC2)cc1 [Compound 122, 4-(4-Methyl-benzoyl)-[1,4]diazepane-1-carboxylic acid (4-tert-butyl-phenyl)-amide]
3.6	O=C(Nc1nc2c(s1)CCCC2)N1CCCN(C(=O)c2ccc(Cl)cc2)CC1 [Compound 168, 4-(4-Chloro-benzoyl)-[1,4]diazepane-1-carboxylic acid (4,5,6,7-tetrahydro-benzothiazol-2-yl)-amide]
